The source of these data is US9012446B2, “Amino-oxazines and amino-dihydrothiazine compounds as beta-secretase modulators and methods of use” (Amgen Inc., priority 2010, dated 2015).

pIC50: −log10 of the molar value. Like-named read-outs stand apart in the source and are kept apart here.

One test has as its system Abeta 40. Put plainly: In vivo inhibition of beta-secretase: Abeta 40 reduction in CSF and brain of the rat. Conditions: 10 mpk, after 4 hrs. The text has this: In Vivo Inhibition of Beta-Secretase
Several animal models, including mouse, rat, dog, and monkey, may be used to screen for inhibition of beta-secretase activity in vivo following administration of a test compound sample. Animals used in this invention can be wild type, transgenic, or gene knockout animals. For example, the Tg2576 mouse model, prepared and conducted as described in Hsiao et al., 1996, Science 274, 99-102, and other non-transgenic or gene knockout animals are useful to analyze in vivo inhibition of Amyloid beta peptide (Abeta) production in the presence of inhibitory test compounds. Generally, 2 to 18 month old Tg2576 mice, gene knockout mice or non-transgenic animals are administered test compounds formulated in vehicles, such as cyclodextran, phosphate buffers, hydroxypropyl methylcellulose or other suitable vehicles. One to twenty-four hours following the administration of compound, animals are sacrificed, and brains as well as cerebrospinal fluid (CSF) and plasma are removed for analysis of A-beta levels and drug or test compound concentrations (Dovey et al., 2001, Journal of Neurochemistry, 76,173-181) Beginning at time 0, animals are administered by oral gavage, or other means of delivery such as intravenous injection, an inhibitory test compound of up to 100 mg/kg in a standard, conventional formulation, such as 2% hydroxypropyl methylcellulose, 1% Tween80. A separate group of animals receive 2% hydroxypropyl methylcellulose, 1% Tween80 alone, containing no test compound, and serve as a vehicle-control group. At the end of the test period, animals are sacrificed and brain tissues, plasma or cerebrospinal fluid are collected. Brains are either homogenized in 10 volumes (w/v) of 0.2% diethylamine (DEA) in 50 mM NaCl (Best et al., 2005, Journal of Pharmacology and Experimental Therapeutics, 313, 902-908), or in 10 volumes of 0.5% TritonX-100 in Tris-buffered saline (pH at about 7.6). Homogenates are centrifuged at 355,000 g, 4° C. for 30 minutes. CSF or brain supernatants are then analyzed for the presence of A-beta peptide by specific sandwich ELISA assays based on ECL (Electrochemiluminescence) technology. For example, rat Abeta40 is measured using biotinylated-4G8 (Signet) as a capture antibody and Fab40 (an in-house antibody specific to the C-terminal of Abeta40) as a detection antibody. For example, 4 hours after administration of 30 mg/kg oral dose of the test compound in 2% hydroxypropyl methylcellulose, 1% Tween80 (pH2.2) to 200 g male Sprague Dawley rats, amyloid beta peptide levels are measured for reduction by X % and Y % in cerebrospinal fluid and brain, respectively, when compared to the levels measured in the vehicle-treated rats. • Actual vehicles used: Oral: 2% HPMC, 1% Tween80, pH 2.2 • IV: 5% EtOH, 45% Propylene glycol in 5% Dextrose
The compounds of the invention may be shown to reduce the formation and/or deposition of amyloid beta peptide in the cerebrospinal fluid (CSF) as well as in the brain of a mouse or rat at either 3 mpk, 10 mpk or 30 mpk (mpk=mg compound per kg weight of the animal) dosing concentrations after 4 hrs.

Another test addresses BACE (Homo sapiens, UniProt P56817). The experiment in a line: In vitro enzymatic BACE FRET assay. The settings on record: average IC50, enzyme assay; read-out: BACE 1 FRET assay. Type of test: biochemical. In short, it runs like this:
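BACE (0.2 nM) preincubated 1 h with serially diluted inhibitors in 0.05 M acetate pH 4.2, 10% DMSO, 100 uM genapol. FRET peptide substrate (50 nM) added, 1 h incubation, then stopped with Tris to neutral pH. Fluorescence from cleavage read at […].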

A further test relates to Aβ40. The experiment in a line: In vitro BACE cell-based assay (Aβ40 sandwich ELISA, cells stably expressing APP). The settings on record: Homo sapiens. In short, it runs like this:
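APP-stably-expressing cells, grown 24 h in DMEM/10% FBS, received 10-point compound doses starting at 100 μM or 10 μM (0.1% DMSO final). Secreted Aβ40 in supernatants measured by sandwich ELISA with time-resolved europium fluorescence; IC50 from percent inhibition versus concentration.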
In general terms: An ELISA detects its analyte on a solid surface through an enzyme-linked reagent.

Setting [1] is: Abeta 40, rat CSF, read-out: % reduction of rat CSF levels at 10 pmk.
The mark [2] stands for this setting: Abeta 40, rat brain, read-out: % reduction of rat brain levels at 10 mpk.
Setting [3] is: HEK293, average IC50, cell assay, HEK cells.
Where [4] appears, read: HEK293, average IC50, read-out: HEK cell assay.

BACE, sequence (P56817 46-501, species assumed): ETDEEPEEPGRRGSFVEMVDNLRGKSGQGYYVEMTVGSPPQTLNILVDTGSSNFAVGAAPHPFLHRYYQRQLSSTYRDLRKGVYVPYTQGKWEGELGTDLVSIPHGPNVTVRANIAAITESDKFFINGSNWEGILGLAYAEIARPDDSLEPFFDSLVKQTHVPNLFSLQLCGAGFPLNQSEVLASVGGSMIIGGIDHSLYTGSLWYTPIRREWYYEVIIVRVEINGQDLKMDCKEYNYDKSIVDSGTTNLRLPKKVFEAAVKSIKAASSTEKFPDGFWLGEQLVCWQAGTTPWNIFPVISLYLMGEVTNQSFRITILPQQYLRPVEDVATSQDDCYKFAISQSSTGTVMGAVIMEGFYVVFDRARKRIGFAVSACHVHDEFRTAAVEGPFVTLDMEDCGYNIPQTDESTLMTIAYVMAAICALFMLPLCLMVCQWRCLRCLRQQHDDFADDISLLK

As for `NC1=N[C@@]2(COC1)c1cc(-c3cccnc3F)ccc1Oc1c(F)cc(C3=CCCOC3)cc12` [Example 132, (S)-2′-(5,6-dihydro-2H-pyran-3-yl)-4′-fluoro-7′-(2-fluoropyridin-3-yl)-2,6-dihydrospiro[[1,4]oxazine-3,9′-xanthen]-5-amine], the inhibition in vivo at 10 mg/kg worked out at 38% in the test on Abeta 40 (setting [1]) and 25% in the test on Abeta 40 (setting [2]). Further, the pIC50 on BACE is 9.52; in the test on Aβ40 (setting [3]), 8.89.
Taken in the same sequence, the figures for `NC1=N[C@@]2(CCO1)c1cc(-c3cncc(F)c3)ccc1Oc1cnc(-c3ccnc(F)c3)cc12` [Example 145, (S)-7-(5-fluoropyridin-3-yl)-3-(2-fluoropyridin-4-yl)-5′,6′-dihydrospiro[chromeno[2,3-c]pyridine-5,4′-[1,3]oxazin]-2′-amine] were 78%, 59%, 8.30 and 8.40.
`NC1=N[C@@]2(CCO1)c1cc(-c3cncc(F)c3)ccc1Oc1cnc(C3=CCCOC3)cc12` [Example 146, (S)-3-(5,6-dihydro-2H-pyran-3-yl)-7-(5-fluoropyridin-3-yl)-5′,6′-dihydrospiro[chromeno[2,3-c]pyridine-5,4′-[1,3]oxazin]-2′-amine]: the inhibition in vivo at 10 mg/kg with Abeta 40 (setting [1]) was 75%; in the test with Abeta 40 (setting [2]) it was 62%. In addition, the pIC50 at BACE was 8.66; with Aβ40 (setting [3]), 8.82.
For `NC1=N[C@@]2(CCO1)c1cc(-c3cccnc3F)ccc1Oc1cnc(-c3ccnc(F)c3)cc12` [Example 149, (S)-7-(2-fluoropyridin-3-yl)-3-(2-fluoropyridin-4-yl)-5′,6′-dihydrospiro[chromeno[2,3-c]pyridine-5,4′-[1,3]oxazin]-2′-amine] the same measures were 80%, 62%, 8.32 and 8.42.
For `NC1=N[C@@]2(CCO1)c1cc(-c3cccnc3F)ccc1Oc1cnc(C3=CCCOC3)cc12` [Example 153, (S)-3-(5,6-dihydro-2H-pyran-3-yl)-7-(2-fluoropyridin-3-yl)-5′,6′-dihydrospiro[chromeno[2,3-c]pyridine-5,4′-[1,3]oxazin]-2′-amine] the same measures were 78%, 64%, 8.70 and 8.59.
Taken in the same sequence, the figures for `CC(C)(C)C#Cc1cc2c(cn1)Oc1ccc(-c3cccnc3F)cc1[C@@]21CCOC(N)=N1` [Example 154, (S)-3-(3,3-dimethylbut-1-ynyl)-7-(2-fluoropyridin-3-yl)-5′,6′-dihydrospiro[chromeno[2,3-c]pyridine-5,4′-[1,3]oxazin]-2′-amine] were 57%, 37%, 8.24 and 8.30.
Turning to `NC1=N[C@@]2(CCO1)c1cc(-c3cccnc3F)ccc1Oc1cnc(-c3cncc(F)c3)cc12` [Example 155, (5S)-7-(2-fluoro-3-pyridinyl)-3-(5-fluoro-3-pyridinyl)-5′,6′-dihydrospiro[chromeno[2,3-c]pyridine-5,4′-[1,3]oxazin]-2′-amine], the inhibition in vivo at 10 mg/kg in the test on Abeta 40 (setting [1]) came out at 68%; in the test on Abeta 40 (setting [2]), 53%. Further, the pIC50 is 8.42 at BACE and 8.21 with Aβ40 (setting [3]).
With `NC1=N[C@@]2(CCO1)c1cc(-c3cccnc3)ccc1Oc1c(F)cc(C3=CCOCC3)cc12` [Example 156, (4S)-2′-(3,6-dihydro-2H-pyran-4-yl)-4′-fluoro-7′-(3-pyridinyl)-5,6-dihydrospiro[1,3-oxazine-4,9′-xanthen]-2-amine], the inhibition in vivo at 10 mg/kg is 27% in the test with Abeta 40 (setting [1]) and 8% in the test with Abeta 40 (setting [2]). Further, the pIC50 at BACE was 8.32; with Aβ40 (setting [3]), 8.38.
In the case of `NC1=N[C@@]2(CCO1)c1cc(-c3cccnc3F)ccc1Oc1c(F)cc(C3=CCOCC3)cc12` [Example 163, (S)-2′-(3,6-dihydro-2H-pyran-4-yl)-4′-fluoro-7′-(2-fluoropyridin-3-yl)-5,6-dihydrospiro[[1,3]oxazine-4,9′-xanthen]-2-amine], the inhibition in vivo at 10 mg/kg in the test with Abeta 40 (setting [1]) was 52%; in the test on Abeta 40 (setting [2]), 28%. Moreover, the values for the pIC50 on BACE and in the test with Aβ40 (setting [4]) were 8.59 and 8.22, respectively.
For `NC1=N[C@@]2(CCO1)c1cc(-c3cccnc3)ccc1Oc1c(F)cc(C3=CCCOC3)cc12` [Example 164, (S)-2′-(5,6-dihydro-2H-pyran-3-yl)-4′-fluoro-7′-(pyridin-3-yl)-5,6-dihydrospiro[[1,3]oxazine-4,9′-xanthen]-2-amine] the same measures were 35%, 12%, 8.55 and 8.57.
Taken in the same sequence, the figures for `NC1=N[C@@]2(CCO1)c1cc(-c3cccnc3F)ccc1Oc1c(F)cc(-c3ccncc3)cc12` [Example 166, (S)-4′-fluoro-7′-(2-fluoropyridin-3-yl)-2′-(pyridin-4-yl)-5,6-dihydrospiro[[1,3]oxazine-4,9′-xanthen]-2-amine] were 42%, 25%, 8.22 and 8.09.
Taken in the same sequence, the figures for `NC1=N[C@@]2(CCO1)c1cc(-c3cccnc3F)ccc1Oc1c(F)cc(-c3cccnc3)cc12` [Example 168, (S)-4′-fluoro-7′-(2-fluoropyridin-3-yl)-2′-(pyridin-3-yl)-5,6-dihydrospiro[[1,3]oxazine-4,9′-xanthen]-2-amine] were 44%, 18%, 8.46 and 8.20.
Take `NC1=N[C@@]2(CCO1)c1cc(-c3cccnc3F)ccc1Oc1c(F)cc(C3=CCCOC3)cc12` [Example 173, (S)-2′-(5,6-dihydro-2H-pyran-3-yl)-4′-fluoro-7′-(2-fluoropyridin-3-yl)-5,6-dihydrospiro[[1,3]oxazine-4,9′-xanthen]-2-amine]: the inhibition in vivo at 10 mg/kg in the test on Abeta 40 (setting [1]) was found to be 40%; with Abeta 40 (setting [2]), 14%. Moreover, the pIC50 at BACE was 8.96; with Aβ40 (setting [4]), 8.54.
Taken in the same sequence, the figures for `CC(C)(F)COc1cc(F)c2c(c1)[C@]1(CCOC(N)=N1)c1cc(-c3cccnc3)ccc1O2` [Example 176, (S)-4′-fluoro-2′-(2-fluoro-2-methylpropoxy)-7′-(pyridin-3-yl)-5,6-dihydrospiro[[1,3]oxazine-4,9′-xanthen]-2-amine] were 30%, 13%, 8.21 and 8.07.
Turning to `CC(C)(F)COc1cc(F)c2c(c1)[C@]1(CCOC(N)=N1)c1cc(-c3cccnc3F)ccc1O2` [Example 182, (S)-4′-fluoro-2′-(2-fluoro-2-methylpropoxy)-7′-(2-fluoropyridin-3-yl)-5,6-dihydrospiro[[1,3]oxazine-4,9′-xanthen]-2-amine], the inhibition in vivo at 10 mg/kg with Abeta 40 (setting [1]) was 59%; in the test on Abeta 40 (setting [2]), 30%. In addition, the pIC50 was 8.60 on BACE and 8.39 in the test on Aβ40 (setting [4]).
